Source: patent US9387248B2, “Pharmaceutical composition comprising antibody composition which specifically binds to CCR4” (KYOWA HAKKO KIRIN CO., LTD, priority 2009, dated 2016)

B1: KM8760: human CDR-grafted anti-CCR4 antibody lacking fucose modification, VH SEQ ID NO:11, VL SEQ ID NO:12 (antibody, V domains shown)
VH: EVQLVESGGDLVQPGRSLRLSCAASGFIFSNYGMSWVRQAPGKGLEWVATISSASTYSYYPDSVKGRFTISRDNAKNSLYLQMNSLRVEDTALYYCGRHSDGNFAFGYWGQGTLVTVSS
VL: DVLMTQSPLSLPVTPGEPASISCRSSRNIVHINGDTYLEWYLQKPGQSPQLLIYKVSNRFSGVPDRFSGSGSGTDFTLKISRVEAEDVGVYYCFQGSLLPWTFGQGTKVEIK
modifications: afucosylated

Tests used:
[1] = system: HH cells grafted into SCID mice; assay: Antitumor effect of anti-CCR4 antibody and Lenalidomide in combination (2), HH cells grafted into SCID mice; type: in vivo, SCID mouse; conditions: KM8760 20 mg/kg iv Day 0, 7, 14, 21, Lenalidomide 1 mg/kg ip daily Day 0-13
Experimental: (§1) HH cells (human multiple myeloma cell line; ATCC No: CRL-2105) were suspended in Dulbecco's phosphate buffered saline without calcium chloride and magnesium chloride (PBS, manufactured by Invitrogen) at a density of 2×10^8 cells/mL, and 100 μL of the suspension was transplanted into the ventral skin of SCID mouse (obtained by Nippon Crea, male). Seven days after the cell transplantation, a diameter of a tumor was measured with calipers, and a tumor volume was calculated using the following formula. Tumor volume=short diameter×short diameter×long diameter×0.5 (Formula)
Individuals having the tumor volume within the range of 51 to 79 mm^3 were selected, and grouped such that the average of tumor volume was to be equal. Then, the following administration groups A to D were arranged. The day of grouping was defined as Day 0.
(§2) A. Negative control group: Administration of medium
B. Group administering KM8760 alone: 20 mg/kg was administered on Day 0, Day 7, Day 14 and Day 21.
(§3) C. Group administering Lenalidomide alone: 1 mg/kg was administered everyday on Day 0 to Day 13.
(§4) D. Group administering KM8760 and Lenalidomide in combination: the respective agent was administered on the same schedule and at the same dose as each group administering respective agent alone.
(§5) The experiment was conducted with groups each consisting of twelve mice. KM8760 was diluted with saline (manufactured by Otsuka Pharmaceutical), and the obtained solution was administered from the tail vein. Lenalidomide was suspended with saline containing 0.5% of methylcellulose and the diluent was intraperitoneally administered. The tumor volume was measured chronologically. The antitumor effect was evaluated by comparing the average values of values (V/V0) obtained by dividing the tumor volume on each day of measurement by the tumor volume on Day 0 in each group.
The result of a test for a significant difference (Steel-Dwass test) between each group administering the respective agent alone and combination administration group is shown in Table 3. In the table, na means not applicable. In addition, when p<0.05, the value is considered to show a significant difference and is shown with * in the table.
(§6) In the table, * means the case where the actual value of T/C is smaller than the theoretical value.

[2] = system: HH cells grafted into SCID mice; assay: Antitumor effect of anti-CCR4 antibody and Lenalidomide in combination (1), HH cells grafted into SCID mice; type: in vivo, SCID mouse; conditions: KM8760 20 mg/kg iv Day 0, 7, 14, Lenalidomide 1 mg/kg ip daily Day 0-13
Experimental: as §1, with “cell;” for “cell line;”, “1×10^7” for “2×10^8”
Individuals having the tumor volume within the range of 41 to 93 mm^3 were selected, and grouped such that the average of tumor volume was to be equal. Then, the following administration groups A to D were arranged. The day of grouping was defined as Day 0.
as §2
B. Group administering KM8760 alone: 20 mg/kg was administered on Day 0, Day 7 and Day 14.
as §3, §4
as §5, with “eight” for “twelve”, “obtained solution” for “diluent”
The results of the test for significant differences (One-way ANOVA, Dunnett test) compared with the negative control group are shown in Table 1. In addition, when p<0.05, the value is considered to show a significant difference and is shown with * in the table.
as §6

HH cells = assay: ADCC activity of KM8760 with Lenalidomide-treated hPBMC effector cells, 51Cr release; type: cell-based, human; conditions: hPBMC effector cells treated with 0.1, 1 or 10 μmol/L Lenalidomide for one, three or five days; effector:target 25:1; KM8760 0.01, 0.1, 1 μg/mL
Experimental: Mononuclear cells (hPBMC) were obtained from peripheral blood from healthy adults by density-gradient centrifugation using Ficoll-paque (manufactured by GE health care). The obtained hPBMC was suspended in RPMI1640 medium containing 10% of FBS and 1% of penicillin/streptomycin solution (manufactured by Nacalai Tesque) (hereinafter referred to as medium). Lenalidomide was added to the suspension to give a final concentration of […]. The obtained suspension was incubated at 37° C. for one, three or five days. Thereafter incubation, hPBMC was washed one time with the medium, and the washed cells were adjusted to give a concentration of about 5×10^6 cells/mL using the medium. The obtained cells were used as effector cells.
After 1×10^6 of HH cells suspended in about 100 μL and 20 μL of ^51Cr solution (NEZ030, manufactured by Perkin-Elmer) were mixed, the mixed solution was incubated at 37° C. for 2 to 4 hours so that HH cells were radiolabeled. […]
On a 96-well U-bottom plate, 50 μL of each of effector cells, target cells and antibody solution was mixed (effector cell:target cell=25:1, final concentration of antibody=0.01, 0.1, or 1 μg/mL) and incubated at 37° C. for 4 hours. […] Herein, CPM was measured using a liquid scintillation counter for microplate (TopCount, manufactured by Perkin-Elmer). […] The rate of cytotoxicity (Lysis %) was calculated using the following formula. […]

Molecule	T/C (V/V0 of group divided by V/V0 of negative control group) ([1]; Day 0)	T/C (V/V0 of group divided by V/V0 of negative control group) ([1]; Day 4)	T/C (V/V0 of group divided by V/V0 of negative control group) ([1]; Day 7)	T/C (V/V0 of group divided by V/V0 of negative control group) ([1]; Day 10)	T/C (V/V0 of group divided by V/V0 of negative control group) ([1]; Day 14)	T/C (V/V0 of group divided by V/V0 of negative control group) ([1]; Day 19)	T/C (V/V0 of group divided by V/V0 of negative control group) ([1]; Day 21)	T/C (V/V0 of group divided by V/V0 of negative control group) ([1]; Day 24)	T/C (V/V0 of group divided by V/V0 of negative control group) ([1]; Day 28)	T/C (V/V0 of group divided by V/V0 of negative control group) ([2]; Day 0)	T/C (V/V0 of group divided by V/V0 of negative control group) ([2]; Day 4)	T/C (V/V0 of group divided by V/V0 of negative control group) ([2]; Day 7)	T/C (V/V0 of group divided by V/V0 of negative control group) ([2]; Day 10)	T/C (V/V0 of group divided by V/V0 of negative control group) ([2]; Day 14)	T/C (V/V0 of group divided by V/V0 of negative control group) ([2]; Day 17)	T/C (V/V0 of group divided by V/V0 of negative control group) ([2]; Day 21)	ADCC activity of KM8760 (cytotoxicity rate, Lysis %, FIG. 3) (HH cells)
Nc1cccc2c1CN(C1CCC(=O)NC1=O)C2=O (stereo not drawn) [Lenalidomide]	1.00	1.05	0.92	0.93	0.75	0.90	0.88	0.95	0.95	1.000	1.041	0.918	0.948	0.875	0.750	0.766	clearly enhanced
B1	1.00	0.89	0.71	0.62	0.54	0.54	0.54	0.55	0.53	1.000	0.910	0.764	0.750	0.691	0.652	0.639	–
